Measured values published in patent publication US5726159A, “Antithrombotic agents” (Eli Lilly and Company, priority 1995, dated 1998).
Where a name gives a salt, the structure may show the parent alone.

Columns and labels:
thrombin = details: Bajusz et al., J. Med. Chem. 1990; cited from earlier work
[1] = Simoons et al., Circulation 1994; cited from earlier work
[2] = Index of bioavailability (% relative activity from plasma TT, oral vs i.v.); format: in vivo; details: dose-adjusted AUC of plasma TT, p.o. vs i.v.
Procedure: Parke Davis) at 37° C. […] Assays are done in duplicate and averaged. […] Each sample population represented alternating sequential time points.

Human plasma [3] = experiment: Human plasma anticoagulation, thrombin time (TT); format: biochemical; details: concentration required to double the clotting time
Outline: (§1)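 Compounds added across a wide concentration range to plasma; PT measured with Thromboplastin-C, APTT after 120 s Actin incubation then 0.02 M CaCl2, TT with bovine thrombin (10 NIH units/mL). Clotting-time doubling concentrations estimated by linear extrapolation.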

t-PA = biological target: T1, t-PA (Homo sapiens, UniProt P00750); experiment: Kass for t-PA, chromogenic substrate; format: biochemical
T1 construct: purchased American Diagnostica, Greenwich, Conn
Procedure: (§2) By substantially following the procedures described above for human thrombin, and using other human blood coagulation system serine proteases and proteases of the fibrinolytic system with the appropriate chromogenic substrates, identified below, selectivity of the compounds of the present invention with respect to the coagulation factor serine proteases and with respect to the fibrinolytic system serine proteases are evaluated as well as their substantial lack of interference with serine proteases of the fibrinolytic system. […] This would be important to the therapeutic use of such agents as an adjunct to streptokinase, t-PA or urokinase thrombolytic therapy and to the use of such agents as an endogenous fibrinolysis-sparing (with respect to t-PA and urokinase) antithrombotic agent. In addition to the lack of interference with the amidase activity of the fibrinolytic proteases, such fibrinolytic system sparing can be studied by the use of human plasma clots and their lysis by the respective fibrinolytic plasminogen activators.

Human plasmin = biological target: T2, Human plasmin (Homo sapiens, UniProt P00747); experiment: Kass for plasmin, chromogenic substrate; format: biochemical
T2 construct: Human plasmin is purchased from Boehringer Mannheim, Indianapolis, Ind; purchased Boehringer Mannheim, Indianapolis, Ind
Procedure: as §2

Human plasma [4] = experiment: Human plasma anticoagulation, prothrombin time (PT); format: biochemical; details: concentration required to double the clotting time
Outline: as §1

Bovine trypsin = biological target: T3, Bovine trypsin (Bos taurus, UniProt P00760); experiment: Kass for trypsin, chromogenic substrate; format: biochemical
T3 construct: Bovine trypsin is purchased from Worthington Biochemicals, Freehold, N.J; purchased Worthington Biochemicals, Freehold, N.J
T3 sequence (P00760 24-246): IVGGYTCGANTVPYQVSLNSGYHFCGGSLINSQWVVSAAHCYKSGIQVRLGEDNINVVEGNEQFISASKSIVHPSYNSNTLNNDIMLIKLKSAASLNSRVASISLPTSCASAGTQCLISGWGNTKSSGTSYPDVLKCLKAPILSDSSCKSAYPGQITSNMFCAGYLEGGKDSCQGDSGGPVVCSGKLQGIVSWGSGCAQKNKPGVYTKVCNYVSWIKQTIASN
Procedure: as §2
(§3) Chromogenic substrates: N-Benzoyl-Ile-Glu-Gly-Arg-p-nitroanilide (for factor Xa); N-Cbz-D-Arg-Gly-Arg-p-nitroanilide (for factor IXa assay as the factor Xa substrate); Pyroglutamyl-Pro-Arg-p-nitroanilide (for Factor XIa and for aPC); H-D-Pro-Phe-Arg-p-nitroanilide (for factor XIIa); and Pyroglutamyl-Gly-Arg-p-nitroanilide (for urokinase); are purchased from KabiVitrnm, Stockholm, Sweden, or from Midwest Biotech, Fishers, Ind. Bovine trypsin is purchased from Worthington Biochemicals, Freehold, N.J., and human plasma kallikrein from Kabi Vitrum, Stockholm, Sweden. Chromogenic substrate H-D-Pro-Phe-Arg-p-nitroanilide for plasma kallikrein is purchased from Kabi Vitrum, Stockholm, Sweden. N-Benzoyl-Phe-Val-Arg-p-nitroanilide, the substrate for human thrombin and for trypsin, is synthesized according to procedures described above for the compounds of the present invention, using known methods of peptide coupling from commercially available reactants or purchased from Midwest Biotech, Fishers, Ind.

Human plasma [5] = experiment: Human plasma anticoagulation, activated partial thromboplastin time (APTT); format: biochemical; details: concentration required to double the clotting time
Outline: as §1

factor Xa = factor Xa (Homo sapiens, UniProt P00742); experiment: Kass for factor Xa, chromogenic substrate; format: biochemical
Procedure: as §2, §3

human thrombin = human thrombin (Homo sapiens, UniProt P00734); experiment: Inhibition of thrombin amidase activity (Kass), chromogenic substrate; format: biochemical; details: association constant, mean over concentrations

Chain of factor Xa (P00742 235-488 limits assumed): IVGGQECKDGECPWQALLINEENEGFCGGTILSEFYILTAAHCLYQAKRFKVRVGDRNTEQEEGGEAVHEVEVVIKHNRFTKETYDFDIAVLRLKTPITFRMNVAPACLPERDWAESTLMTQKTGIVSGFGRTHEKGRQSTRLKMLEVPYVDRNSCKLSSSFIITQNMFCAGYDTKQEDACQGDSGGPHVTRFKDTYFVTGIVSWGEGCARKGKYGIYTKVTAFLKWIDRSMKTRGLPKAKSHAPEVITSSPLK
Chain of factor Xa (P00742 41-179 partner limits assumed): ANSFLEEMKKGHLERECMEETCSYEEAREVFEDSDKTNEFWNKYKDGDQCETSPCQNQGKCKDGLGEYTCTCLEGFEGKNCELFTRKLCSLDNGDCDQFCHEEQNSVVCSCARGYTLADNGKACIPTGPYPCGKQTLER
T1 sequence (P00750 36-562): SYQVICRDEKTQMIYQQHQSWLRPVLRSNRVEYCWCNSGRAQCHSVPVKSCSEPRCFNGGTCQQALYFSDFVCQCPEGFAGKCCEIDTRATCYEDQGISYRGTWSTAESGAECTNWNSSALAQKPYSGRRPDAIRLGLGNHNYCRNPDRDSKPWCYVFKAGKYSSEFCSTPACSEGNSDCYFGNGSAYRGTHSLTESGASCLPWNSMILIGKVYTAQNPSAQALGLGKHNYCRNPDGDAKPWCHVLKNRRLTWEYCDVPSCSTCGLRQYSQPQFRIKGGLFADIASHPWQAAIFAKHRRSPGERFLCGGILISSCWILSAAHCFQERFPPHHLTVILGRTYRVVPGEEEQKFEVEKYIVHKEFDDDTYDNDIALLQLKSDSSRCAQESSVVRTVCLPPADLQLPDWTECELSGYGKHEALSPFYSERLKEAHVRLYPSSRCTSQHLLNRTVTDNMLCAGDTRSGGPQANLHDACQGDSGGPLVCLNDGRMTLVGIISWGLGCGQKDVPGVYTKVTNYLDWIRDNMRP
T2 sequence (P00747 581-810 limits assumed): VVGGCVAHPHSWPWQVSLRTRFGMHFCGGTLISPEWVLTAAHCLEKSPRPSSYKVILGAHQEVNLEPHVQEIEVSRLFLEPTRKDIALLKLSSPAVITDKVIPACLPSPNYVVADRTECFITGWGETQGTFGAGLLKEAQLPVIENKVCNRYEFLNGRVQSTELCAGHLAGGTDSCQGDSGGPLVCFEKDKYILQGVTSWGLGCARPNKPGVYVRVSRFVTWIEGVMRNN
T2 sequence (P00747 97-580 partner limits assumed): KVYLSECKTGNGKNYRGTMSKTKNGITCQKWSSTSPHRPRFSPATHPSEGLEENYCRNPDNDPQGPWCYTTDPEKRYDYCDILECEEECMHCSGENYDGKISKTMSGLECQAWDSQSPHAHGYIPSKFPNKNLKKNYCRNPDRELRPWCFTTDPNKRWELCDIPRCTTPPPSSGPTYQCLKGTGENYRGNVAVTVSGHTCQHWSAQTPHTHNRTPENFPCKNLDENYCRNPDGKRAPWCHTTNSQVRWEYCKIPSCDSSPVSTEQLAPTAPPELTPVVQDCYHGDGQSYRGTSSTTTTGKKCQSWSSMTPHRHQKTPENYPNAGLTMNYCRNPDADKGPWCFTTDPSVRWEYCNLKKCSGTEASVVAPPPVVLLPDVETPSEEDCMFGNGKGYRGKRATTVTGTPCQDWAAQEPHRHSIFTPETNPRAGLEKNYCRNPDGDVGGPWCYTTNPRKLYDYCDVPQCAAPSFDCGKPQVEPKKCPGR

Kass t-PA (t-PA) | Kass Plasmin (Human plasmin) | Kass Trypsin (Bovine trypsin) | Kass Xa (factor Xa) | Kass Human Thrombin (human thrombin) | Molecule | direct inhibition of thrombin (thrombin) | anticoagulant activity in man [1] | % oral/i.v. activity (Rat) [2] | 2x Clotting time TT (Human plasma [3]) | 2x Clotting time PT (Human plasma [4]) | 2x Clotting time APTT (Human plasma [5])
 |  |  |  |  | CC(C)(C)OC(=O)N[C@H](Cc1ccccc1)C(=O)N1CCC[C@H]1C(=O)N[C@H](C=O)CCCNC(=N)N [Boc-D-Phe-Pro-Arg-H] | potent direct inhibition of thrombin |  |  |  |  | 
 |  |  |  |  | CN[C@H](Cc1ccccc1)C(=O)N1CCC[C@H]1C(=O)N[C@H](C=O)CCCNC(=N)N.O=S(=O)(O)O [D-MePhe-Pro-Arg-H sulfate] |  | anticoagulant in man |  |  |  | 
 |  |  |  |  | CN[C@H](Cc1ccccc1)C(=O)N1CCC[C@H]1C(=O)N[C@H](C=O)CCCNC(=N)N [D-MePhe-Pro-Arg-H] | potent direct inhibition of thrombin |  |  |  |  | 
 |  |  |  |  | N=C(N)NCCC[C@@H](C=O)NC(=O)[C@@H]1CCCN1C(=O)[C@H](N)Cc1ccccc1 [D-Phe-Pro-Arg-H] | potent direct inhibition of thrombin |  |  |  |  | 
0.002 × 10^6 (L/mole) | 0.031 × 10^6 (L/mole) | 0.96 × 10^6 (L/mole) | 0.62 × 10^6 (L/mole) | 3.6 × 10^6 (L/mole) | D-hPro-N(PhCH2 CH2)Gly-p-NHCH2 -C6 H4 C(NH)NH2.2HCl [Example 21] |  |  |  | 160 ng/mL | 1,000 ng/mL | 2,000 ng/mL
0.004 × 10^6 (L/mole) | 0.042 × 10^6 (L/mole) | 8.5 × 10^6 (L/mole) | 0.043 × 10^6 (L/mole) | 3.0 × 10^6 (L/mole) | D-hPro-Pro(4-cis-PhO)-p-NHCH2 -C6 H4 C(NH)NH2.2HCl [Example 22] |  |  |  | 170 ng/mL | 1,000 ng/mL | 2,300 ng/mL
0.31 × 10^6 (L/mole) | 0.44 × 10^6 (L/mole) | 21 × 10^6 (L/mole) | 0.14 × 10^6 (L/mole) | 770 × 10^6 (L/mole) | EtSO2 -D-Phe-Pro-p-NHCH2 -C6 H4 C(=NH)NH2.HCl [Example 23] |  |  |  | 7 ng/mL | 120 ng/mL | 86 ng/mL

Molecule | Kass t-PA (t-PA) | Kass Plasmin (Human plasmin) | Kass Trypsin (Bovine trypsin) | Kass Xa (factor Xa) | Kass Human Thrombin (human thrombin) | direct inhibition of thrombin (thrombin) | anticoagulant activity in man [1] | % oral/i.v. activity (Rat) [2] | 2x Clotting time TT (Human plasma [3]) | 2x Clotting time PT (Human plasma [4]) | 2x Clotting time APTT (Human plasma [5])
CCS(=O)(=O)N[C@H](Cc1ccccc1)C(=O)N1CCC[C@H]1C(=O)NCCCCNC(=N)N [Example 1, EtSO2 -D-Phe-Pro-Agm.HCl] | 0.082 |  |  |  |  |  |  | 8% | 250 ng/mL |  | 
EtSO2 -Phg-cis-Ohi-p-NHCH2 C6 H4 C(NH)NH2.HCl [Example 44] | 0.04 | 1.8 |  | 0.66 |  |  |  |  | 4. ng/mL | 170 ng/mL | 100 ng/mL
